# Measurements from patent publication US5880099A, “Inositol polyphosphates and methods of using same” (The Regents of the University of California, priority 1997, dated 1999).
# “Also recorded” adds a separate entry of the source.
# How the values were obtained:
# [1] = tested on: T84 cells (EGF induced inhibition of chloride ion secretion); settings: cited from earlier work
# [2] = tested on: phosphatidylinositol 3-kinase (PI 3-kinase); settings: Uribe et al. 1996b; cited from earlier work
# [3] = tested on: T84 cells (Ins(3,4,5,6)P4 inhibition of histamine-stimulated chloride ion secretion); assay: Reversal of Bt2 -Ins(3,4,5,6)P4 /AM inhibition of histamine-stimulated chloride ion secretion in T84 cells; assay type: cell-based, human; settings: T84 cells, histamine-stimulated
# Procedure: Initial studies were directed towards understanding structural determinants of Ins(3,4,5,6)P4 responsible for the inhibitory effect on calcium-mediated chloride ion secretion. A series of cell permeable inositol polyphosphate derivatives were synthesized. These derivatives contained either one or two non-hydrolyzable chemical groups on the 1, 2 or 3 position. T84 monolayers were preincubated for 30 minutes with 200 μM of 2-Bt-1-Me-Ins(3,4,5,6)P4 /AM, Me2 -Ins(3,4,5,6)P4 /AM, Me2 -Ins(1,4,5,6)P4 /AM or 2-Bt-3-Me-Ins(1,4,5,6)P4 /AM.
# Following the incubation, cells were mounted in Ussing chambers. Calcium-mediated chloride ion secretion was stimulated with histamine (10^-4 M). Control values were the response to histamine in coincubated monolayers. Data are represented as mean peak ΔIsc ±SEM, expressed as % control for 8 to 10 experiments. Significant differences were identified using the Student's two-tailed t test.
# T84 cells were preincubated with cell permeant inositol polyphosphates as described above to determine if any of the inositol polyphosphate derivatives function as antagonists of Ins(3,4,5,6)P4 inhibition of calcium-mediated chloride ion secretion. Following histamine stimulation, short circuit current was measured. […] The % control shown in FIG. 3 represents ΔIsc over peak Isc in control monolayers stimulated with histamine. However, […]
# [4] = tested on: T84 colonic epithelial cells (carbachol-mediated inhibition of chloride ion secretion); assay: Reversal of carbachol-mediated inhibition of thapsigargin-stimulated chloride ion secretion in T84 cells; assay type: cell-based, human; settings: carbachol 10^-4 M, thapsigargin 1 μM
# Procedure: T84 colonic epithelial cells were treated with D,L-1,2-cyclohexylidene-Ins(3,4,5,6)P4 /AM, 1-Bu-2-Bt-Ins(3,4,5,6)P4 /AM, Bu2 -Ins(3,4,5,6)P4 /AM, 3-Bt-2-Bu-Ins(1,4,5,6)P4 /AM, Bu2 -Ins(1,4,5,6)P4 /AM, 1-Bt-2-Bu-Ins(3,4,5,6)P4 /AM or 3-Bu-2-Bt-Ins(1,4,5,6)P4 /AM and the short circuit current was measured.
# One set of cells was preincubated for 30 min with an inositol polyphosphate derivative. The other two sets of cells were preincubated with vehicle, alone. Measurement of Isc was initiated at time 0. At 5 min, carbachol (10^-4 M) was added to one set of cells preincubated with vehicle alone (designated "Carbachol" in FIG. 5) and to the set of cells preincubated with inositol polyphosphate derivatives (designated "Carbachol+D,L-1,2-Cyclohexylidene-Ins(3,4,5,6)P4 /AM" in FIG. 5A). At 30 min, 1 μM thapsigargin was added. Data were collected for n=4 to 6 experiments.
# [5] = tested on: colonic epithelial T84 cells (calcium-mediated chloride ion secretion); assay: Inhibition of calcium-mediated chloride ion secretion (Table I summary); assay type: cell-based, human; settings: pathway: Ins (3,4,5,6)P4
# Text: The invention provides compounds that are agonists or antagonists of inositol polyphosphates. Inositol polyphosphate derivatives can function as inositol polyphosphate agonists and antagonists. The effects of compounds of the invention on Ins(3,4,5,6)P4 - and PtdInsP3 -mediated inhibition of calcium-mediated chloride ion secretion are described in the Examples and summarized in Table I.
# Enantiomerically pure 1,2-Bt2 -Ins(3,4,5,6)P4 /AM was synthesized to determine if 1,2-Bt2 -Ins(3,4,5,6)P4 /AM mediates the uncoupling of chloride ion secretion from intracellular calcium concentrations. T84 cells (passages 18-48) were maintained as described previously (Weymer, et al., J. Clin. Invest. 76:1828 (1985)), which is incorporated herein by reference. After 7-10 days of incubation on SNAP-WELLS (Corning Costar; Cambridge, Mass.), monolayers had formed tight junctions. Cell monolayers were preincubated with 100, 200 or 400 μM Bt2 -Ins(3,4,5,6)P4 /AM for 30 min prior to mounting. After an additional 30 min, 0.1 mM histamine was added and chloride ion secretion was monitored. Chloride ion secretion was measured as short circuit current (Isc) across T84 monolayers grown to confluence and mounted in Ussing chambers equipped with voltage clamps (Physiologic Instruments; San Diego, Calif.). Data was acquired and analyzed using "Acquire and Analyze" software (Physiologic Instruments).
# [6] = tested on: Ins(3,4,5,6)P4; settings: background; cited from earlier work
# [7] = tested on: T84 cells (EGF induced inhibition of chloride ion secretion); assay: EGF induced inhibition of carbachol-stimulated chloride ion secretion in T84 cells and its reversal; assay type: cell-based, human; settings: EGF 16.3 nM, carbachol 100 μM
# Procedure: After an additional 15 min incubation, 100 μM carbachol was added to acutely elevate intracellular calcium concentrations. Controls also were stimulated with carbachol but were not pretreated with EGF. Data are the means of duplicate measurements from a representative experiment (total of three experiments).
Compound,reversal of EGF induced inhibition of chloride ion secretion (in words) ([1]; Uribe et al. 1996b),effect on formation of PI 3-kinase products (in words) [2],"reversal of the inhibitory effect of Bt2 -Ins(3,4,5,6)P4 /AM / Ins(3,4,5,6)P4-mediated inhibition (in words) [3]",reversal of carbachol-mediated inhibition of chloride ion secretion (in words) [4],Mechanism and Inositol Polyphosphate Pathway Affected [5],"increase in Ins(3,4,5,6)P4 levels [6]",effect on calcium-mediated chloride ion secretion induced by carbachol and thapsigargin (in words) ([1]; Uribe et al. 1996),effect on carbachol-stimulated chloride ion secretion / EGF induced inhibition (in words) [7]
"COC[C@H]1OC(=O)c2coc3c2[C@@]1(C)C1=C(C3=O)[C@@H]2CCC(=O)[C@@]2(C)C[C@H]1OC(C)=O [Wortmannin, reference compound]",reversed the EGF induced inhibition of chloride ion secretion,blocked formation of PtdInsP3 and PtdInsP2,–,–,–,–,–,–
"CCCCO[C@@H]1[C@H](OCCCC)[C@H](OP(=O)(OCOC(C)=O)OCOC(C)=O)[C@@H](OP(=O)(OCOC(C)=O)OCOC(C)=O)[C@H](OP(=O)(OCOC(C)=O)OCOC(C)=O)[C@H]1OP(=O)(OCOC(C)=O)OCOC(C)=O [Bu2 -Ins(3,4,5,6)P4 /AM, D-1,2-Di-O-butyl-myo-inositol 3,4,5,6-tetrakisphosphate octakis(acetozymethyl)ester]",–,–,"reversed Ins(3,4,5,6)P4 -mediated inhibition of chloride ion secretion",enhanced chloride ion secretion; also recorded: reversed the carbachol-mediated inhibition of chloride ion secretion stimulated by thapsigargin,Antagonist of,–,–,–
"CCCCO[C@@H]1[C@H](OC(=O)CCC)[C@H](OP(=O)(OCOC(C)=O)OCOC(C)=O)[C@@H](OP(=O)(OCOC(C)=O)OCOC(C)=O)[C@H](OP(=O)(OCOC(C)=O)OCOC(C)=O)[C@H]1OP(=O)(OCOC(C)=O)OCOC(C)=O [1-Bu-2-Bt-Ins(3,4,5,6)P4 /AM, D-1-O-Butyl-2-O-butyryl-myo-inositol 3,4,5,6-tetrakisphosphate octakis(acetoxymethyl)ester]",–,–,"reversed Ins(3,4,5,6)P4 -mediated inhibition of chloride ion secretion",enhanced chloride ion secretion; also recorded: reversed the carbachol-mediated inhibition of chloride ion secretion stimulated by thapsigargin,Antagonist of,–,–,–
EGF: epidermal growth factor (EGF),–,stimulated an increase in levels of the PI 3-kinase products,–,–,–,1.7 -fold,inhibits calcium-mediated chloride ion secretion,decreased chloride ion secretion; also recorded: inhibited carbachol stimulated chloride ion secretion
"CC(=O)OCOP(=O)(OCOC(C)=O)O[C@H]1[C@H](OP(=O)(OCOC(C)=O)OCOC(C)=O)[C@@H](OP(=O)(OCOC(C)=O)OCOC(C)=O)[C@H]2OC3(CCCCC3)O[C@H]2[C@@H]1OP(=O)(OCOC(C)=O)OCOC(C)=O (relative stereo) [rac-1,2-Di-O-cycloheylidene-myo-inositol 3,4,5,6-tetrakisphosphate octakis(acetoxymethyl)ester]",–,–,–,enhanced chloride ion secretion; also recorded: reversed the inhibitory effect of carbachol on calcium-mediated chloride ion secretion; also recorded: reversed the carbachol-mediated inhibition of chloride ion secretion stimulated by thapsigargin,Antagonist of,–,–,–
